This passage reports IC50 and inhibition results from patent US6335350B1, “Acetamide and substituted acetamide-containing thiourea inhibitors of herpes viruses” (American Home Products Corporation, priority 1998, dated 2002).

One experiment deals with HSV-1. The experiment in a line: HSV Antiviral (ELISA) Assay. The format is cell-based, herpes simplex virus type 1. The following applies: Human alphaherpesvirus 1, Vero, Vero cells, HSV-1; read-out: IC50 Ug/ml HSV. In a few lines:
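Replication measured as glycoprotein D signal in fixed cells: anti-gD antibody plus β-galactosidase-linked secondary, fluorogenic substrate read at 365/450 nm. Vero cells (2% FBS DMEM) received compound 30 min pre-infection, HSV-1 MOI 0.006, ~24 h incubation; IC50 relative to no-compound fluorescence.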

Another experiment deals with VZV strain Ellen. The experiment in a line: VZV Antiviral (ELISA) Assay. The format is cell-based, varicella-zoster virus. The following applies: Human alphaherpesvirus 3, Fibroblast, human foreskin fibroblast cells; for IC50: read-out: IC50 Ug/ml VZV; for inhibition at 10 µg/mL: read-out: % inhibition 10 ug/ml VZV, 10 ug/ml. In a few lines:
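Cell-based VZV (Ellen) spread assay in HFF, 3-day compound exposure in 2% FBS medium. Viral antigen quantified by fluorescent β-galactosidase ELISA; IC50 from inhibition of signal.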
(In general: In an ELISA, binding on a coated surface is turned into a signal by an enzyme label.)

The next experiment has as its system HCMV wild-type. The experiment in a line: HCMV yield assay. The class given is cell-based, human cytomegalovirus. The following applies: Human betaherpesvirus 5, Fibroblast, human foreskin fibroblasts; read-out: IC50 Ug/ml HCMV. In a few lines: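 Value is the compound amount cutting virus yield titer by 50% (IC50) or 90% (IC90). Human foreskin fibroblasts infected with wild-type HCMV (MOI typically 0.2) under varying compound; progeny harvested day 3, titered compound-free on fibroblasts, plaques scored at 2 weeks.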

Values after ≈ are worked out from the molar mass of the structure shown.

Take `COc1cc(OC)c(NC(=S)Nc2cc(O)c(NC(C)=O)cc2Cl)cc1Cl` [Example 321, N-{5-Chloro-4-[3-(5-chloro-2,4-dimethoxy-phenyl)-thioureido]-2-hydroxy-phenyl}-acetamide]: the values for the IC50 in the experiment on HSV-1, in the experiment with VZV strain Ellen and in the experiment with HCMV wild-type were 7 µg/mL (≈ 16.3 µM), more than 10 µg/mL and 18 µg/mL (≈ 41.8 µM), respectively. The inhibition at 10 µg/mL in the experiment with VZV strain Ellen came to 28%.

For `CC(=O)Nc1ccc(NC(=S)Nc2ccc(Oc3cc(Cl)c(Cl)cc3S(=O)(=O)O)c(Cl)c2)cc1` [Example 263, 2-{4-[3-(4-Acetylamino-phenyl)-thioureido]-2-chloro-phenoxy}-4,5-dichloro-benzensulfonic acid], the values for the IC50 in the experiment with HSV-1, in the experiment on VZV strain Ellen and in the experiment with HCMV wild-type were more than 50 µg/mL, more than 10 µg/mL and more than 50 µg/mL, respectively. For the same compound, the inhibition at 10 µg/mL with VZV strain Ellen is 20%.

`CC(=O)Nc1ccc(NC(=S)Nc2ccc(N3CCCC3)c(Cl)c2)cc1` [Example 242, N-{4-[3-(3-Chloro-4-pyrrolidin-1-yl-phenyl)-thioureido]-phenyl}-acetamide]: the IC50 in the experiment on HSV-1 is 50 µg/mL (≈ 129 µM); in the experiment with VZV strain Ellen, more than 10 µg/mL; in the experiment with HCMV wild-type, more than 10 µg/mL. Moreover, in the experiment on VZV strain Ellen, the inhibition at 10 µg/mL was 20%.

As to `COc1cc(OC)c(NC(=S)Nc2ccc(NC(C)=O)cc2)cc1I` [Example 197, N-{4-[3-(5-Iodo-2,4-dimethoxy-phenyl)-thioureido]-phenyl}-acetamide], the IC50 in the experiment on HSV-1 is 6 µg/mL (≈ 12.7 µM); in the experiment on VZV strain Ellen it was more than 15 µg/mL; in the experiment on HCMV wild-type it was more than 10 µg/mL. Also, in the experiment on VZV strain Ellen, the inhibition at 10 µg/mL came out at 59%.

Regarding `CC(=O)Nc1ccc(NC(=S)Nc2cc(Cl)c(Cl)c(Cl)c2)cc1` [Example 936, N-{4-[3-(3,4,5-Trichloro-phenyl)-thioureido]-phenyl}-acetamide], the figures for the IC50 with HSV-1, in the experiment on VZV strain Ellen and with HCMV wild-type were 1.5 µg/mL (≈ 3.86 µM), more than 10 µg/mL and 1 µg/mL (≈ 2.57 µM), respectively. Besides, the inhibition at 10 µg/mL in the experiment with VZV strain Ellen is 51%.

For `CC(=O)Nc1ccc(NC(=S)Nc2ccc(N(C)C3CCCC3)c(Cl)c2)cc1` [Example 844, N-(4-{3-[3-Chloro-4-(cyclopentyl-methyl-amino)-phenyl]-thioureido}-phenyl)-acetamide], the IC50 is 15 µg/mL (≈ 36 µM) in the experiment on HSV-1, more than 10 µg/mL in the experiment on VZV strain Ellen and 0.8 µg/mL (≈ 1.92 µM) in the experiment on HCMV wild-type. The inhibition at 10 µg/mL in the experiment on VZV strain Ellen is 32%.

`CC(=O)Nc1ccc(NC(=S)Nc2ccc(NC3CCCCC3)c(Cl)c2)cc1` [Example 299, N-{4-[3-(3-Chloro-4-cyclohexylamino-phenyl)-thioureido]-phenyl}-acetamide]: the IC50 was more than 10 µg/mL with HSV-1, 3.8 µg/mL (≈ 9.11 µM) with VZV strain Ellen and 6 µg/mL (≈ 14.4 µM) in the experiment with HCMV wild-type. The inhibition at 10 µg/mL in the experiment with VZV strain Ellen came to 72%.

Take `COc1cc(NC(=S)Nc2ccc(NC(C)=O)cc2)c(OC)cc1Cl` [Example 110, N-{4-[3-(4-Chloro-2,5-dimethoxy-phenyl)-thioureido]-phenyl}-acetamide]: the results for the IC50 in the experiment on HSV-1, in the experiment on VZV strain Ellen and with HCMV wild-type were 12 µg/mL (≈ 31.6 µM), more than 10 µg/mL and 30 µg/mL (≈ 79 µM), respectively. Also, the inhibition at 10 µg/mL in the experiment on VZV strain Ellen came out at 25%.

As to `CC(=O)Nc1ccc(NC(=S)Nc2cccc([N+](=O)[O-])c2)cc1` [Example 124, N-{4-[3-(3-Nitro-phenyl)-thioureido]-phenyl}-acetamide], the IC50 with HSV-1 is 50 µg/mL (≈ 151 µM); with VZV strain Ellen, more than 10 µg/mL; with HCMV wild-type, 50 µg/mL (≈ 151 µM). Moreover, the inhibition at 10 µg/mL in the experiment with VZV strain Ellen is 0%.

As to `COc1cc(OC)c(NC(=S)Nc2ccc(NC(C)=O)c(OC)c2)cc1Cl` [Example 274, N-{4-[3-(5-Chloro-2,4-dimethoxy-phenyl)-thioureido]-2-methoxy-phenyl}-acetamide], the figures for the IC50 in the experiment on HSV-1, in the experiment with VZV strain Ellen and in the experiment with HCMV wild-type were 5 µg/mL (≈ 12.2 µM), more than 10 µg/mL and more than 50 µg/mL, respectively. Further, the inhibition at 10 µg/mL with VZV strain Ellen stood at 15%.

As to `COc1cc(OCc2ccccc2)c(NC(=S)Nc2ccc(NC(C)=O)cc2)cc1Cl` [Example 835, N-{4-[3-(2-Benzyloxy-5-chloro-4-methoxy-phenyl)-thioureido]-phenyl}-acetamide], the IC50 with HSV-1 was 8 µg/mL (≈ 17.5 µM); in the experiment on VZV strain Ellen it was more than 10 µg/mL; in the experiment with HCMV wild-type, more than 10 µg/mL. The inhibition at 10 µg/mL in the experiment on VZV strain Ellen worked out at 38%.

Regarding `CC(=O)Nc1ccc(NC(=S)Nc2ccc(-c3cc[nH]n3)c(Cl)c2)cc1` [Example 925, N-(4-{3-[3-Chloro-4-(1H-pyrazol-3-yl)-phenyl]-thioureido}-phenyl)-acetamide], the IC50 is more than 10 µg/mL in the experiment with HSV-1, more than 10 µg/mL in the experiment on VZV strain Ellen and 3.5 µg/mL (≈ 9.07 µM) with HCMV wild-type. For the same compound, the inhibition at 10 µg/mL in the experiment on VZV strain Ellen was 32%.

On to `COc1ccc(Cl)c(NC(=S)Nc2ccc(NC(C)=O)cc2)c1` [Example 881, N-{4-[3-(2-Chloro-5-methoxy-phenyl)-thioureido]-phenyl}-acetamide], for which the IC50 is 40 µg/mL (≈ 114 µM) in the experiment on HSV-1, more than 10 µg/mL in the experiment with VZV strain Ellen and more than 50 µg/mL with HCMV wild-type. In addition, the inhibition at 10 µg/mL in the experiment with VZV strain Ellen came out at 12%.

Consider `CC(=O)Nc1ccc(NC(=S)Nc2ccc(N(C)C3CCN(C)CC3)c(Cl)c2)cc1` [Example 841, N-[4-(3-{3-Chloro-4-[methyl-(1-methyl-piperidin-4-yl)-amino]-phenyl}-thioureido)-phenyl]-acetamide], for which the IC50 was more than 50 µg/mL with HSV-1, more than 10 µg/mL with VZV strain Ellen and 0.9 µg/mL (≈ 2.02 µM) in the experiment on HCMV wild-type. The inhibition at 10 µg/mL with VZV strain Ellen turned out to be 30%.

Consider `COc1cc(OC)c(NC(=S)Nc2cc(C)c(NC(C)=O)cc2Cl)cc1Cl` [Example 326, N-{5-Chloro-4-[3-(5-chloro-2,4-dimethoxy-phenyl)-thioureido]-2-methyl-phenyl}-acetamide], for which the IC50 in the experiment with HSV-1 is 10 µg/mL (≈ 23.3 µM); in the experiment with VZV strain Ellen it was more than 10 µg/mL; in the experiment with HCMV wild-type it was more than 10 µg/mL. In the experiment on VZV strain Ellen, the inhibition at 10 µg/mL worked out at 19%.

`COc1ccc(NC(=S)Nc2ccc(NC(C)=O)cc2)c(O)c1` [Example 132, N-{4-[3-(2-Hydroxy-4-methoxy-phenyl)-thioureido]-phenyl}-acetamide]: the figures for the IC50 in the experiment on HSV-1, in the experiment with VZV strain Ellen and in the experiment on HCMV wild-type were more than 50 µg/mL, more than 10 µg/mL and more than 50 µg/mL, respectively. In addition, the inhibition at 10 µg/mL in the experiment with VZV strain Ellen is 11%.

As for `COc1cc(OC)c(NC(=S)Nc2ccc(NC(C)=O)c3ccccc23)cc1Cl` [Example 329, N-{4-[3-(5-Chloro-2,4-dimethoxy-phenyl)-thioureido]-naphthalen-1-yl}-acetamide], the values for the IC50 with HSV-1, in the experiment on VZV strain Ellen and with HCMV wild-type were 4 µg/mL (≈ 9.3 µM), more than 10 µg/mL and more than 10 µg/mL, respectively. In addition, the inhibition at 10 µg/mL in the experiment on VZV strain Ellen was determined as 38%.

`COc1ccc(NC(=S)Nc2ccc(NC(C)=O)cc2)cc1Cl` [Example 106, N-{4-[3-(3-Chloro-4-methoxy-phenyl)-thioureido]-phenyl}-acetamide]: the results for the IC50 in the experiment on HSV-1, in the experiment on VZV strain Ellen and with HCMV wild-type were 3 µg/mL (≈ 8.58 µM), more than 10 µg/mL and 7 µg/mL (≈ 20 µM), respectively. For the same compound, in the experiment with VZV strain Ellen, the inhibition at 10 µg/mL worked out at 20%.

On to `CC(=O)Nc1ccc(NC(=S)Nc2ccccc2[N+](=O)[O-])cc1` [Example 878, N-{4-[3-(2-Nitro-phenyl)-thioureido]-phenyl}-acetamide], for which the IC50 is 50 µg/mL (≈ 151 µM) in the experiment on HSV-1, more than 10 µg/mL in the experiment on VZV strain Ellen and 40 µg/mL (≈ 121 µM) with HCMV wild-type. Moreover, the inhibition at 10 µg/mL in the experiment with VZV strain Ellen amounted to 23%.

As for `CCOc1cc(OC)c(NC(=S)Nc2ccc(NC(C)=O)cc2)cc1Cl` [Example 832, N-{4-[3-(5-Chloro-4-ethoxy-2-methoxy-phenyl)-thioureido]-phenyl}-acetamide], the IC50 in the experiment on HSV-1 is 9 µg/mL (≈ 22.8 µM); in the experiment on VZV strain Ellen it was more than 10 µg/mL; with HCMV wild-type, more than 50 µg/mL. For the same compound, the inhibition at 10 µg/mL in the experiment with VZV strain Ellen is 15%.
